Experimental data taken from patent US11459323B2, “Monocyclic β-lactam compound for treating bacterial infection” (MEDSHINE DISCOVERY INC., priority 2018, dated 2022).
≈ marks a conversion by molar mass, not a printed value. Read-outs that look alike come from different tables or passages of the source. Marks after values point to notes of the source that are not given here.

Assays:
P. aeruginosa ATCC 35151 = assay: MIC by micro-liquid dilution method (CLSI); type: cell-based; conditions: Pseudomonas aeruginosa
E. coli ATCC 25922 = assay: MIC by micro-liquid dilution method (CLSI); type: cell-based; conditions: Escherichia coli
[1] = tested on: K. pneumoniae ATCC BAA-2470 (NDM-1); assay: MIC by micro-liquid dilution method (CLSI); type: cell-based, Klebsiella pneumonia; conditions: Klebsiella pneumoniae, ATCCBAA2470
[2] = tested on: K. pneumoniae ATCC BAA-205 (TEM-1/SHV-1/SHV-12); assay: MIC by micro-liquid dilution method (CLSI); type: cell-based, Klebsiella pneumonia; conditions: Klebsiella pneumoniae, ATCCBAA205
A. baumannii ATCC 17978 = assay: MIC by micro-liquid dilution method (CLSI); type: cell-based; conditions: Acinetobacter baumannii
[3] = tested on: K. pneumoniae ATCC BAA-1705 (KPC-2); assay: MIC by micro-liquid dilution method (CLSI); type: cell-based, Klebsiella pneumonia; conditions: Klebsiella pneumoniae, ATCCBAA1705
[4] = tested on: E. coli NCTC 13476 (IMP-1 type); assay: MIC by micro-liquid dilution method (CLSI); type: cell-based; conditions: Escherichia coli
Source text: (§1) Three strains of Klebsiella pneumonia, K. pneumoniae ATCC BAA-205 (TEM-1/SHV-1/SHV-12), K. pneumoniae ATCC BAA-1705 (KPC-2), K. pneumoniae ATCC BAA-2470 (NDM-1); three strains of Pseudomonas aeruginosa, P. aeruginosa NCTC13437 (VIM-10; VEB-1), P. aeruginosa PA 14 and P. aeruginosa ATCC 35151; four strains of Escherichia coli, E. coli NCTC 13476 (IMP-1 type), E. coli ATCC BAA-2523 (OXA-48), E. coli MG1655Δtol C, E. coli ATCC 25922; one strain of Acinetobacter baumannii, A. baumannii ATCC 17978 and one strain of Staphylococcus aureus, S. aureus NRS384 were used to determine the minimum inhibitory concentration (MIC) of the compounds by micro-liquid dilution method according to the Institute of Clinical and Laboratory Standard (CLSI) requirements.

[5] = tested on: E. coli ATCC BAA-2523 (OXA-48); assay: MIC by micro-liquid dilution method (CLSI); type: cell-based; conditions: Escherichia coli, ATCCBAA2523
Source text: as §1

E. coli MG1655Δtol C = assay: MIC by micro-liquid dilution method (CLSI); type: cell-based; conditions: Escherichia coli
Source text: as §1

P. aeruginosa PA 14 = assay: MIC by micro-liquid dilution method (CLSI); type: cell-based; conditions: Pseudomonas aeruginosa, PA14
Source text: as §1

[6] = Pharmacokinetic experiment of the compounds in mice; type: in vivo; conditions: mouse, plasma, 2 mg/kg, Male CD-1 mice, fasting, 2 mpk; for Vd / clearance / AUC(0-t) / half-life / C0: intravenous injection; for Vd: read-out: Apparent distribution volume Vdss; for clearance: read-out: Clearance rate Cl; for AUC(0-t): read-out: Exposure AUC0-last; for half-life: read-out: Half-life period T1/2 (converted); for C0: read-out: Initial concentration C0; for bioavailability / Cmax: second section of Table 7 (intravenous injection); for Cmax: read-out: Maximum concentration Cmax
Experimental: In this experiment, six CD-1 mice (males) were divided into 2 groups (2 groups) according to their similar body weight. Group 1 and Group 2 were given respectively a single intravenous and intraperitoneal injection of the compounds of embodiment 13, embodiment 17, embodiment 32 and embodiment 34, each compound was at 2 mg/kg. The vehicles for intravenous and intraperitoneal injections were 5% dimethyl sulfoxide/95% water (10% polyoxyethylene castor oil), K2-EDTA (anticoagulant).
About 0.02 mL of blood samples from the saphenous vein were collected from all experimental animals, and the actual blood collection time was recorded. In this experiment, the deviation between the actual blood collection time and the theoretical blood collection time was in accordance with the regulations (the deviation of time points within 1 hour after administration were within 1 minute, and other deviations were within 5% of the theoretical time). After the blood samples were collected, they were immediately transferred to labeled centrifuge tubes containing K2 EDTA (0.5 M), followed by centrifugation (3,000 g, 4° C., 15 minutes) and the plasma was collected. The plasma was transferred to pre-cooled centrifuge tubes, quickly frozen in dry ice, and stored in an ultra-low temperature refrigerator at −60° C. or lower until LC-MS/MS analysis.

[7] = tested on: Pseudomonas aeruginosa PA14; assay: Lungs of immunosuppressed mice infected with Pseudomonas aeruginosa (1), lung bacterial load; type: in vivo; conditions: 24 hours after infection, day, ip at 2 h, 4 h, 6 h, 8 h
Experimental: Pseudomonas aeruginosa PA14. 64 mice were intraperitoneally injected with 150 mg/kg cyclophosphamide on the first day and the fourth day to give immunosuppressed mice. […] [table] The mice were injected with 50 μL of bacterial solution (2×10^3 CFU) through the airway. 2 hours after the infection, 4 mice in the model group was sacrificed by removing cervical vertebra. Two hours after infection, the drugs were administered by groups, and the mice were administered intraperitoneally once at 2 hours, 4 hours, 6 hours, and 8 hours, a total of 4 times. Mice of each group were sacrificed by removing cervical vertebra 24 hours after infection, lung and kidney tissues were taken aseptically and put into sterilized tissue homogenate tubes, weighed, and an appropriate amount of normal saline (NS) was added, the mixture was homogenized by a homogenizer for 1 min, the lung tissues of the model group were diluted 10^4, 10^5, 10^6 times, the lung tissues of each administration group were diluted 10, 100 times, the kidney tissues of the model group were diluted 10^2, […], 10^4 times, and the lung tissues of each administration group were diluted 10 times, the obtained mixtures were coated on TSA plates using spiral coater, then incubated at 37° C. overnight, and the CFU was counted with a colony counter. Graphpad Prism mapping software was used to make scatter plots of lung tissue CFU. SPSS19.0 software was used to count CFU and average body weight, and analysis of variance was used to analyze differences between groups.

[8] = tested on: Acinetobacter baumannii ATCC-BAA-1791; assay: MIC on Acinetobacter baumannii strains; type: cell-based; conditions: ATCCBAA1791
Source text: (§2) Twelve strains of Acinetobacter baumannii, A. baumannii ATCC 17978 (ATCC-BAA-1605, ATCC-BAA-1789, ATCC-BAA-1790, ATCC-BAA-1791, ATCC-BAA-1792, ATCC-BAA-1793, ATCC-BAA-1794, ATCC-BAA-1795, ATCC-BAA-1799, ATCC-BAA-1800, ATCC 19606, ATCC 17978) were used to determine the minimum inhibitory concentration (MIC) of the compounds by micro-liquid dilution method according to the Institute of Clinical and Laboratory Standard (CLSI) requirements.

[9] = tested on: Acinetobacter baumannii ATCC-BAA-1793; assay: MIC on Acinetobacter baumannii strains; type: cell-based; conditions: ATCCBAA1793, ATCC-BAA-1793, read-out: MIC
Source text: as §2

[10] = tested on: Acinetobacter baumannii ATCC-BAA-1605; assay: MIC on Acinetobacter baumannii strains; type: cell-based; conditions: ATCCBAA1605, ATCC-BAA-1605, read-out: MIC
Source text: as §2

[11] = E. coli ATCC25922, read-out: MIC
[12] = K. pneumoniae ATCCBAA-2470, read-out: MIC
[13] = K. pneumoniae ATCCBAA-205, read-out: MIC
[14] = A. baumannii ATCC17978, read-out: MIC
[15] = K. pneumoniae ATCCBAA-1705, read-out: MIC
[16] = E. coli NCTC13476, read-out: MIC
[17] = P. aeruginosa PA 14, read-out: MIC
[18] = E. coli ATCCBAA-2523, read-out: MIC

Row | Vd [6] [L/kg] | clearance [6] [mL/min/kg] | AUC(0-t) [6] [µM·h] | half-life [6] [min] | C0 [6] [µM] | bioavailability [6] [%] | Cmax [6] [µM] | Compound | MIC (P. aeruginosa ATCC 35151; ATCC35151) [µg/mL] | MIC [1, 12] [µg/mL] | MIC [2, 13] [µg/mL] | MIC (A. baumannii ATCC 17978; [14]) [µg/mL] | MIC [3, 15] [µg/mL] | MIC [4, 16] [µg/mL] | MIC [5] [µg/mL] | MIC (E. coli MG1655Δtol C) [µg/mL] | MIC (P. aeruginosa PA 14; [17]) [µg/mL] | also measured
1 | 0.281 | 8.51 | 6.73 | 28.6 | 18.9 | 88.4 | 5.76 | CC1(C)[C@H](NC(=O)/C(=N\OCCOc2ccc3c(c2)CN(C(=N)NCCCN)C3)c2csc(N)n2)C(=O)N1OS(=O)(=O)O [Compound 13] | – | – | – | – | – | – | – | – | – | –
2 | 0.274 | 10.4 | 4.95 | 22.6 | 14.4 | 93.3 | 5.55 | CC1(C)[C@H](NC(=O)/C(=N\O[C@@H](COc2ccc3c(c2)CN(C(=N)NCCCN)C3)C(=O)O)c2csc(N)n2)C(=O)N1OS(=O)(=O)O [Compound 34] | – | – | – | – | – | – | – | – | – | LOG10-of bacterial load ([7]; total dosage 60 mg/kg): 0**; LOG10-of bacterial load ([7]; total dosage 120 mg/kg): 0**; LOG10-of bacterial load ([7]; total dosage 200 mg/kg): 1.10 ± 1.75
3 | 0.0636 | 1.57 | 5.77 | 30.8 | 11.3 | 140 | 8 | CC1(C)[C@H](NC(=O)/C(=N\O[C@@H](COc2ccc3c(c2)CN(C(=N)N(CCCN)CCCN)C3)C(=O)O)c2csc(N)n2)C(=O)N1OS(=O)(=O)O [Compound 32] | – | – | – | – | – | – | – | – | – | LOG10-of bacterial load ([7]; total dosage 60 mg/kg): 0**; LOG10-of bacterial load ([7]; total dosage 120 mg/kg): 0**; LOG10-of bacterial load ([7]; total dosage 200 mg/kg): 0**
4 | 0.237 | 4.6 | 11 | 35.8 | 17 | 131 | 10.6 | CC1(C)[C@H](NC(=O)/C(=N\OCCOc2ccc3c(c2)CN(C(=N)N(CCCN)CCCN)C3)c2csc(N)n2)C(=O)N1OS(=O)(=O)O [Compound 17] | – | 0.25 (≈ 0.359 µM) | 2 (≈ 2.87 µM) | ≤ 0.125 | 0.25 (≈ 0.359 µM) | – | – | – | 0.5 (≈ 0.718 µM) | MIC [5, 18]: ≤ 0.125 µg/mL; MIC [8]: 0.25 µg/mL (≈ 0.359 µM); MIC [9]: 4 µg/mL (≈ 5.74 µM); MIC [10]: 4 µg/mL (≈ 5.74 µM)

Second part, the compound before the results:

Row | Compound | Vd [6] [L/kg] | clearance [6] [mL/min/kg] | AUC(0-t) [6] [µM·h] | half-life [6] [min] | C0 [6] [µM] | bioavailability [6] [%] | Cmax [6] [µM] | MIC (P. aeruginosa ATCC 35151; ATCC35151) [µg/mL] | MIC [1, 12] [µg/mL] | MIC [2, 13] [µg/mL] | MIC (A. baumannii ATCC 17978; [14]) [µg/mL] | MIC [3, 15] [µg/mL] | MIC [4, 16] [µg/mL] | MIC [5] [µg/mL] | MIC (E. coli MG1655Δtol C) [µg/mL] | MIC (P. aeruginosa PA 14; [17]) [µg/mL] | also measured
5 | CC1(C)[C@H](NC(=O)/C(=N\OCCOc2ccc3c(c2)CCN(C(=N)N2CCNCC2)C3)c2csc(N)n2)C(=O)N1OS(=O)(=O)O [Compound 11] | – | – | – | – | – | – | – | ≤ 0.125 | 1 (≈ 1.5 µM) | 16 (≈ 24 µM) | 2 (≈ 3 µM) | 1 (≈ 1.5 µM) | 0.5 (≈ 0.751 µM) | ≤ 0.125 | ≤ 0.125 | 4 (≈ 6.01 µM) | MIC (E. coli ATCC 25922; [11]): 0.25 µg/mL (≈ 0.376 µM)
6 | CC1(C)[C@H](NC(=O)/C(=N\OCCOc2ccc3c(c2)CCN(C(=N)NC2CCNCC2)C3)c2csc(N)n2)C(=O)N1OS(=O)(=O)O [Compound 12] | – | – | – | – | – | – | – | ≤ 0.125 | 1 (≈ 1.47 µM) | 16 (≈ 23.5 µM) | 0.5 (≈ 0.736 µM) | 1 (≈ 1.47 µM) | 0.25 (≈ 0.368 µM) | ≤ 0.125 | ≤ 0.125 | 2 (≈ 2.94 µM) | MIC (E. coli ATCC 25922; ATCC25922): ≤ 0.125 µg/mL
7 | CC1(C)[C@H](C(=O)O)N2C(=O)C[C@H]2S1(=O)=O [Sulbactam, reference compound] | – | – | – | – | – | – | – | 64 (≈ 274 µM) | – | – | – | – | – | 64 (≈ 274 µM) | 32 (≈ 137 µM) | – | MIC (E. coli ATCC 25922; ATCC25922): 64 µg/mL (≈ 274 µM); MIC [1]: > 128 µg/mL; MIC [2]: 64 µg/mL (≈ 274 µM); MIC (A. baumannii ATCC 17978; ATCC17978): 2 µg/mL (≈ 8.57 µM); MIC [3]: > 128 µg/mL; MIC ([4]; NCTC13476): > 128 µg/mL; MIC (P. aeruginosa PA 14): 8 µg/mL (≈ 34.3 µM)
8 | CC1(C)[C@H](NC(=O)/C(=N\OCCOc2ccc3c(c2)CN(C(=N)N)CC3)c2csc(N)n2)C(=O)N1OS(=O)(=O)O [Compound 10] | – | – | – | – | – | – | – | – | 4 (≈ 6.7 µM) | 16 (≈ 26.8 µM) | 4 (≈ 6.7 µM) | 4 (≈ 6.7 µM) | 2 (≈ 3.35 µM) | – | ≤ 0.125 | 8 (≈ 13.4 µM) | MIC (P. aeruginosa ATCC 35151; P. aeruginosa ATCC35151, read-out: MIC): 0.25 µg/mL (≈ 0.419 µM); MIC (E. coli ATCC 25922; [11]): 1 µg/mL (≈ 1.68 µM); MIC [5, 18]: 0.25 µg/mL (≈ 0.419 µM)
